Laboratory results: article PMC6081394, “Structural basis of cell wall anchoring by SLH domains in Paenibacillus alvei” (Nature Communications, 2018)
pKd: −log10 of the molar value.

How the values were obtained:
[1] = biological target: T1, S-layer protein SpaA (SpaASLH) (Paenibacillus alvei, UniProt C1JZ07); test: co-crystal structure (no binding detected by ITC)
T1 construct: SLH domain trimer, amino acids 21–193, Ser-Gly-Ser linker and C-terminal His6-tag
T1 sequence (C1JZ07 21-193): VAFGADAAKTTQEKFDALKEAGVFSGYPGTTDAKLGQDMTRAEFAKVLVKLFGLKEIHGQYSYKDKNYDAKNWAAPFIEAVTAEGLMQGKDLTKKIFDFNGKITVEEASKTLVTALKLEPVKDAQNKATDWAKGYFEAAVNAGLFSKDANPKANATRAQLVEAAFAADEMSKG

[2] = biological target: T2, S-layer protein SpaA (SpaASLH/G109A) (Paenibacillus alvei, UniProt C1JZ07, G109A); test: ITC and co-crystal structure; assay type: binding
T2 construct: SLH domain trimer, amino acids 21–193, Ser-Gly-Ser linker and C-terminal His6-tag

[3] = biological target: T1, S-layer protein SpaA (SpaASLH); test: ITC and co-crystal structures; assay type: binding
[4] = biological target: T3, S-layer protein SpaA (SpaASLH/G46A/G109A) (Paenibacillus alvei, UniProt C1JZ07, G46A/G109A); test: co-crystal structure (no binding detected by ITC)
T3 construct: SLH domain trimer, amino acids 21–193, Ser-Gly-Ser linker and C-terminal His6-tag
T3 sequence (C1JZ07 21-193 G46A/G109A): T1 sequence (C1JZ07 21-193)

| SMILES | co-crystal structure (no binding detected by ITC) [1] | pKd [2] | pKd [3] | co-crystal structure (no binding detected by ITC) [4] |
| --- | --- | --- | --- | --- |
| CO[C@@H]1O[C@@H]2CO[C@](C)(C(=O)O)O[C@H]2[C@H](O[C@@H]2O[C@H](CO)[C@@H](O)[C@H](O)[C@H]2NC(C)=O)[C@@H]1NC(C)=O [disaccharide, β-D-GlcNAc-(1 → 3)-4,6-Pyr-β-D-ManNAcOMe] | Despite the lack of binding measured by ITC, a co-crystal structure with the internal disaccharide was obtained |  |  |  |
| CO[C@@H]1O[C@@H]2CO[C@](C)(C(=O)O)O[C@H]2[C@H](O)[C@@H]1NC(C)=O [monosaccharide (M), 4,6-Pyr-β-D-ManNAcOMe] |  | 6.65 | 7.54 | Despite the lack of binding detected by ITC, ligand is again observed bound in the G2 pocket |
